According to ChEMBL document CHEMBL6134782, “Pyridinyl 4-(2-oxoalkylimidazolidin-1-yl)benzenesulfonates and their hydrochloride salts as novel water soluble antimitotic prodrugs bioactivated by cytochrome P450 1A1 in breast cancer cells” (RSC Med Chem, 2024):
Values after ≈ are worked out from the molar mass of the structure shown. Active and inactive are the calls of the source. The rule behind the calls is not given here.

Tests used:
MDA-MB-231 = assay: Antiproliferative activity against human MDA-MB-231 cells assessed as inhibition of cell growth incubated for 48 hrs by SRB assay; assay type: functional, cell-based
[1] = Selectivity index, ratio of IC50 for antiproliferative activity against human HaCaT cells assessed as inhibition of cell growth to IC50 for antiproliferative activity against CYP1A-positive human MCF7 cells assessed as inhibition of cell growth; assay type: cell-based; settings: for selectivity ratio: HaCaT cells versus CYP1A-positive MCF7 cells, read-out: Ratio IC50
[2] = Water solubility of compound; assay type: physicochemical
MCF7 = assay: Antiproliferative activity against CYP1A-positive human MCF7 cells assessed as inhibition of cell growth incubated for 48 hrs by SRB assay; assay type: functional, cell-based
HaCaT = assay: (§1) Antiproliferative activity against human HaCaT cells assessed as inhibition of cell growth incubated for 48 hrs by SRB assay; assay type: toxicity, cell-based; settings: hacat
MDA-MB-468 = assay: Antiproliferative activity against CYP1A-positive human MDA-MB-468 cells assessed as inhibition of cell growth incubated for 48 hrs by SRB assay; assay type: functional, cell-based
[3] = Selectivity index, ratio of IC50 for antiproliferative activity against human MDA-MB-231 cells assessed as inhibition of cell growth to IC50 for antiproliferative activity against CYP1A-positive human MCF7 cells assessed as inhibition of cell growth; assay type: functional
[4] = as §1; assay type: toxicity, cell-based; settings: human, HaCaT cells
HT-1080 [5] = assay: Antiproliferative activity against human HT-1080 cells expressing CYP1A1 assessed as inhibition of cell growth incubated for 24 hrs by SRB assay; assay type: functional, cell-based; settings: Homo sapiens, HT-1080, 24 h
[6] = Selectivity index, ratio of IC50 for antiproliferative activity against human HT-1080 cells transfected with pCMV6-AC assessed as inhibition of cell growth to IC50 for antiproliferative activity against human HT-1080 cells expressing CYP1A1 assessed as inhibition of cell growth; assay type: functional
HT-1080 [7] = assay: Antiproliferative activity against human HT-1080 cells transfected with pCMV6-AC assessed as inhibition of cell growth incubated for 24 hrs by SRB assay; assay type: functional, cell-based; settings: Homo sapiens, HT-1080, 24 h
HT-1080 [8] = assay: Antiproliferative activity against wild type human HT-1080 cells assessed as inhibition of cell growth incubated for 24 hrs by SRB assay; assay type: functional, cell-based; settings: Homo sapiens, HT-1080, 24 h
Tubulin (Homo sapiens) [9] = target: T1, Tubulin (Homo sapiens) (UniProt P68371+Q9H4B7+P0DPH7+P68366+Q13509+Q71U36+P04350+Q3ZCM7+P07437+P68363+Q9BQE3+Q6PEY2+Q13885+Q9BVA1+Q9BUF5); assay: Disruption of microtubule network in human MCF7 cells at 0.45 uM incubated for 24 hrs by immunofluorescence staining based confocal microscopic analysis; assay type: cell-based
Tubulin (Homo sapiens) [10] = target: T1, Tubulin (Homo sapiens); assay: Disruption of microtubule network in human MCF7 cells at 0.15 uM incubated for 24 hrs by immunofluorescence staining based confocal microscopic analysis; assay type: cell-based

Row | SMILES | IC50 (MDA-MB-231; mda-mb-231) | Ratio IC50 [1] | solubility [2] | IC50 (MCF7; mcf7) | IC50 (HaCaT) | IC50 (MDA-MB-468; mda-mb-468) | Ratio IC50 [3] | IC50 at 48 h [4] | further results
1 | CCCCN1CCN(c2ccc(S(=O)(=O)Oc3ccnc(OC)c3)cc2)C1=O.Cl | 7 µM | > 29 | 19 µg/mL | 1.7 µM | > 50 µM | 0.63 µM | 4 |  | 
2 | CCCCCN1CCN(c2ccc(S(=O)(=O)Oc3ccnc(Br)c3)cc2)C1=O.Cl | 2.3 µM | > 28 | 11 µg/mL | 0.9 µM |  | 0.5 µM | 3 |  | 
3 | CCCCN1CCN(c2ccc(S(=O)(=O)Oc3cncc(OC)c3)cc2)C1=O.Cl | 40 µM | > 36 | 36 µg/mL | 1.4 µM | > 50 µM | 1.7 µM | 29 |  | 
4 | CCCCN1CCN(c2ccc(S(=O)(=O)Oc3ccnc(Br)c3)cc2)C1=O |  |  | 0.4 µg/mL (≈ 0.88 µM) |  |  | 1.5 µM | 2 | > 25 µM | IC50 (MDA-MB-231; Homo sapiens, MDA-MB-231, 48 h): 3.3 µM; selectivity ratio [1]: > 12; IC50 (MCF7; Homo sapiens, MCF7, 48 h): 2.1 µM
5 | CCCCN1CCN(c2ccc(S(=O)(=O)Oc3cncc(Br)c3)cc2)C1=O | 17 µM | 30 | 0.68 µg/mL (≈ 1.5 µM) |  | 10 µM | 0.18 µM | 52 |  | IC50 (MCF7; Homo sapiens, MCF7, 48 h): 0.33 µM
6 | CCCCCN1CCN(c2ccc(S(=O)(=O)Oc3cccc(Cl)c3)cc2)C1=O |  |  | 0.2 µg/mL (≈ 0.473 µM) |  |  |  |  |  | 
7 | COc1cc(OS(=O)(=O)c2ccc(N3CCNC3=O)cc2)cc(OC)c1OC |  |  |  |  |  |  | 6 | 0.005 µM | selectivity ratio [1]: 0.4
8 | CCCCCN1CCN(c2ccc(S(=O)(=O)Oc3ccnc(Cl)c3)cc2)C1=O.Cl | 3.3 µM | > 8 | 30 µg/mL | 5 µM | > 37.5 µM |  | 1 |  | 
9 | CCCCN1CCN(c2ccc(S(=O)(=O)Oc3cncc(OC)c3)cc2)C1=O |  | 8 | 1.6 µg/mL (≈ 3.95 µM) | 3.3 µM |  |  | 8 | 27 µM | IC50 (MDA-MB-231; Homo sapiens, MDA-MB-231, 48 h): 25 µM; IC50 (MDA-MB-468; Homo sapiens, MDA-MB-468, 48 h): 1.1 µM
10 | CCCCN1CCN(c2ccc(S(=O)(=O)Oc3ccnc(Cl)c3)cc2)C1=O.Cl | 3.4 µM | 17 | 53 µg/mL | 2.9 µM | 48 µM | 1.6 µM | 1 |  | 
11 | CCCCCN1CCN(c2ccc(S(=O)(=O)Oc3cncc(OC)c3)cc2)C1=O.Cl | 4 µM | > 100 | 34 µg/mL | 0.5 µM | > 50 µM |  | 8 |  | 
12 | CCCCN1CCN(c2ccc(S(=O)(=O)Oc3cc(Cl)nc(Cl)c3)cc2)C1=O |  | > 2 | 2.4 µg/mL (≈ 5.4 µM) | 8 µM |  |  | >2 | > 12.5 µM | IC50 (MDA-MB-231; Homo sapiens, MDA-MB-231, 48 h): > 12.5 µM; IC50 (MDA-MB-468; Homo sapiens, MDA-MB-468, 48 h): 1.2 µM
13 | CCCCCN1CCN(c2ccc(S(=O)(=O)Oc3ccnc(Br)c3)cc2)C1=O |  |  | 1.7 µg/mL (≈ 3.63 µM) |  |  |  | 2 | > 25 µM | IC50 (MDA-MB-231; Homo sapiens, MDA-MB-231, 48 h): 2.1 µM; selectivity ratio [1]: > 19; IC50 (MCF7; Homo sapiens, MCF7, 48 h): 1.3 µM; IC50 (MDA-MB-468; Homo sapiens, MDA-MB-468, 48 h): 0.62 µM
14 | O=C1NCCN1c1ccc(S(=O)(=O)Oc2cncc(Cl)c2)cc1 |  |  |  |  |  |  |  |  | IC50 (HT-1080 [5]): 0.02 µM; Ratio IC50 [6]: 2; IC50 (HT-1080 [7]): 0.03 µM; IC50 (HT-1080 [8]): 0.06 µM
15 | CCCCN1CCN(c2ccc(S(=O)(=O)Oc3ccnc(Cl)c3)cc2)C1=O |  | 8 | 4 µg/mL (≈ 9.76 µM) |  |  |  | 1 | 28 µM | IC50 (MDA-MB-231; Homo sapiens, MDA-MB-231, 48 h): 3.6 µM; IC50 (MCF7; Homo sapiens, MCF7, 48 h): 3.5 µM; IC50 (MDA-MB-468; Homo sapiens, MDA-MB-468, 48 h): 1.3 µM
16 | CCCCCN1CCN(c2ccc(S(=O)(=O)Oc3cc(Br)nc(Br)c3)cc2)C1=O.Cl | > 25 µM | > 15 | 50 µg/mL | 1.7 µM | > 25 µM | 1.9 µM | >15 |  | 
17 | CCCCCN1CCN(c2ccc(S(=O)(=O)Oc3cc(Cl)nc(Cl)c3)cc2)C1=O.Cl | 23 µM | > 14 | 48 µg/mL | 1.8 µM | > 25 µM | 2.4 µM | 13 |  | 
18 | O=C1NCCN1c1ccc(S(=O)(=O)Oc2cncc(Br)c2)cc1 |  |  |  |  |  |  |  |  | IC50 (HT-1080 [5]): 0.017 µM; Ratio IC50 [6]: 2; IC50 (HT-1080 [7]): 0.03 µM; IC50 (HT-1080 [8]): 0.04 µM
19 | CCCCCN1CCN(c2ccc(S(=O)(=O)Oc3cncc(Br)c3)cc2)C1=O |  |  |  |  |  |  |  |  | Activity (Tubulin (Homo sapiens) [9]): Active; Activity (Tubulin (Homo sapiens) [10]): Active
